The values below come from US6849594B1, “Purification and use of human recombinant cartilage oligomeric matrix protein” (priority 1999, dated 2005).

Read-outs that look alike come from different tables or passages of the source.

Experiment [1] has as its target T1, hCOMP (Homo sapiens, UniProt P49747).
T1 construct: transfected with full length human COMP cDNA, they were able to process and secrete hCOMP; made in house
Briefly: Affinity co-electrophoresis (ACE) binding of hCOMP to glycosaminoglycans. From the text:
Affinity co-electrophoresis (ACE) was used to quantify the binding of hCOMP to heparin and other GAGs, including chondroitin sulfates from cartilage. Values are given in nM, and in cases where a standard deviation is reported, represent the mean of two determinations.
Affinity co-electrophoresis (ACE) (San Antonio et al., 1993) was used to quantify the binding of hCOMP to heparin and other commercially available GAGs derived from tissue sources, including chondroitin sulfates from cartilage, and values of Kd were measured. […] This is in agreement with our observation that hCOMP binds to heparin-Sepharose. […] To better ascertain potential roles of GAGs and proteoglycans in COMP function, heparan sulfate, keratan sulfate, and three chondroitin sulfates (chondroitin-6-sulfate, C6S; chondroitin-4-sulfate; C4S; and dermatan sulfate, DS) were tested for binding to hCOMP in the presence of 2 mM calcium using ACE (Table 1).
To further determine whether the conformation of the calcium-binding type 3 repeats was critical to GAG binding, hCOMP was tested for binding to heparin and C6S in the presence of 5 mM EDTA. […] While heparin binding was reduced only 3- to 5-fold by EDTA treatment, C6S binding appeared to be abolished by this treatment.

Experiment [2] deals with Human costochondral cartilage cells. Briefly: Transwell chondrocyte migration assay. Type of experiment: cell-based. As to conditions: for chondrocyte migration: coated on underside of transwell membranes, 37° C., four hours. Here is the method:
(§1) Furthermore, as discussed in Example 5, COMP is a motility factor for chondrocyte migration. Human costochondral cartilage cells were used to test if COMP is active in promoting chondrocyte migration. COMP, as well as TSP1 and Vitrogen (Cohesion; Palo Alto, Calif.), at different concentrations, was coated on the underside of membranes of transwell migration assay wells. Chondrocyte cells, prepared as in the attachment assays, were loaded into the wells. Migration was allowed to go on at 37° C. for four hours. Nonmigratory cells remaining inside the wells were removed with cotton swabs. Cells which migrated to the underside of the membranes were quantified using a CyQuant kit.
as §1, with “Human” for “Furthermore, as discussed in Example 5, COMP is a motility factor for chondrocyte migration. Human”, “concentrations, were” for “concentrations, was”, “assay wells (Costar, Cambridge, Mass.).” for “assay wells.”, “Cells that” for “Cells which”, “CyQuant kit (Molecular Probes).” for “CyQuant kit.”

Experiment [3] is described as follows: Direct calcium binding by equilibrium dialysis using 45CaCl2. As to conditions: 0.3 mM free calcium concentration; mean±SD. The procedure: Direct calcium binding to COMP was measured by equilibrium dialysis using ^45CaCl2. Briefly, TSP1 and COMP were dialyzed in Slide-A-Lyzer dialysis units (Pierce, Rockford, Ill.) against dialysis buffer containing 0.3 mM CaCl2 and […] of ^45CaCl2. At the end of dialysis, 10 μl of protein sample and dialysis buffer were taken out for scintillation counting and protein determination. The number of calcium ions bound was calculated. At 0.3 mM free calcium concentration, each TSP1 subunit bound 10±2 calcium ions (mean±SD of four data points). This is in agreement with previous reports where 11-12 calcium ions were reported to bind to each TSP1 subunit (Lawler and Simons, 1983; Misenheimer and Mosher, 1995). Under the same conditions, each subunit of COMP bound 11±1 calcium ions. This is the first time it is shown that COMP binds calcium ions, and the result is consistent with the presence of highly homologous type 3 calcium binding repeats in COMP and other TSP family members.
Direct calcium binding to COMP was measured by equilibrium dialysis using ^45CaCl2. Briefly, TSP1 and COMP were dialyzed in Slide-A-Lyzer dialysis units (Pierce, Rockford, Ill.) against dialysis buffer containing 0.3 mM CaCl2 and 10 mCi/ml of ^45CaCl2. […] The number of calcium ions bound was calculated. […]
(In equilibrium dialysis free small molecules cross a membrane that holds back macromolecules.)

For experiment [4] the following is noted: previous reports (Lawler and Simons, 1983; Misenheimer and Mosher, 1995); cited from earlier work.
The test system of experiment [5] is TC1a cells (chondrocyte-derived cell line), monolayer culture. Nature of the experiment: Attachment of TC1a cells grown in monolayer to coated protein. Type of experiment: cell-based, human. The procedure:
To prepare cells grown in monolayer for attachment assays, cells grown in 10 cm tissue culture plates were washed twice with HEPES buffered saline (HBS), and treated with 1 ml of 0.1 mg/ml TPCK-treated trypsin (Worthington, Lakewood, N.J.) in HBS at 37° C. for 5 minutes. Trypsinization was stopped with 2 ml of 0.5 mg/ml soybean trypsin inhibitor (Sigma) in HBS with 1 mM CaCl2 (HBS/C). Cells were flushed off the plate as a single cell suspension, sedimented and washed twice with trypsin inhibitor solution. Subsequently, cells were resuspended in HBS/C containing 1% heat-inactivated bovine serum albumin (HI-BSA) at a final concentration of 2-2.5×10^5 cells/ml and used for attachment assays.
Immulon II 96-well plates (DYNEX, Chantilly, Va.) were coated with COMP at various concentrations in HBS/C or HBS containing 5 mM EDTA (HBS/E) at 4° C. overnight. The plates were then blocked with 1% HI-BSA in HBS/C or HBS/E, respectively, for 30 minutes at 37° C. After blocking, some wells coated with proteins in HBS/E were reduced with 20 mM dithiothreitol (DTT) in HBS/E for 30 minutes at 22° C. Wells were washed 4 times with HBS/C before addition of 100 μl of cells to each well and incubated for 2 hours at 37° C. At the end of the incubation, after examination under phase contrast microscopy, the plate was washed 3 times with HBS/C. The amount of cells attached to each well was quantified using CyQuant kit (Molecular Probes, Eugene, Oreg.).

For experiment [6], the system named is TC1a cells after 7- to 10-day culture in alginate beads. Briefly: Attachment of TC1a cells after alginate culture to coated protein. Type of experiment: cell-based, human. From the text: An alginate culture system was used to re-differentiate the chondrocytes as described (Robbins and Goldring, 1998; Goldring, 1998; Hauselmann et al., 1994; Bonaventure et al., 1994). Briefly, cells in monolayer culture were trypsinized and washed with phosphate buffered saline. Cells were resuspended in 1.2% solution of Keltone, LVCR alginate (Monsanto, St. Louis, Mo.) in 0.15 M NaCl at a final concentration of 4×10^6 cells/ml. The cell suspension was then passed through a 22 Gauge needle into 102 mM CaCl2. Ten minutes after instant gelation, beads were washed with 0.15 M NaCl, and cultured in 1:1 DME/F-12 containing 10% FBS and 25 μg/ml ascorbate. To prepare cells in the alginate culture system for attachment assays, 7- to 10-day alginate bead cultures were solubilized with 55 mM citrate/0.15 M NaCl, pH 6.0 solution as described (Robbins and Goldring, 1998). Released cells were washed once with PBS and once with HBS/C before they were resuspended in HBS/C containing 1% BSA at a final concentration of 2-2.5×10^5 cells/ml.
Immulon II 96-well plates (DYNEX, Chantilly, Va.) were coated with COMP at various concentrations in HBS/C or HBS containing 5 mM EDTA (HBS/E) at 4° C. overnight. […] The amount of cells attached to each well was quantified using CyQuant kit (Molecular Probes, Eugene, Oreg.). […]

[7] abbreviates: 2 mM Ca2+, ACE, > means no binding observed at any protein concentration, read-out: COMP, Kd in 2 mM Ca^2+.
Setting [8] is: 5 mM EDTA, ACE, > means no binding observed at any protein concentration, read-out: COMP, Kd in 5 mM EDTA.

T1 sequence (P49747 21-757): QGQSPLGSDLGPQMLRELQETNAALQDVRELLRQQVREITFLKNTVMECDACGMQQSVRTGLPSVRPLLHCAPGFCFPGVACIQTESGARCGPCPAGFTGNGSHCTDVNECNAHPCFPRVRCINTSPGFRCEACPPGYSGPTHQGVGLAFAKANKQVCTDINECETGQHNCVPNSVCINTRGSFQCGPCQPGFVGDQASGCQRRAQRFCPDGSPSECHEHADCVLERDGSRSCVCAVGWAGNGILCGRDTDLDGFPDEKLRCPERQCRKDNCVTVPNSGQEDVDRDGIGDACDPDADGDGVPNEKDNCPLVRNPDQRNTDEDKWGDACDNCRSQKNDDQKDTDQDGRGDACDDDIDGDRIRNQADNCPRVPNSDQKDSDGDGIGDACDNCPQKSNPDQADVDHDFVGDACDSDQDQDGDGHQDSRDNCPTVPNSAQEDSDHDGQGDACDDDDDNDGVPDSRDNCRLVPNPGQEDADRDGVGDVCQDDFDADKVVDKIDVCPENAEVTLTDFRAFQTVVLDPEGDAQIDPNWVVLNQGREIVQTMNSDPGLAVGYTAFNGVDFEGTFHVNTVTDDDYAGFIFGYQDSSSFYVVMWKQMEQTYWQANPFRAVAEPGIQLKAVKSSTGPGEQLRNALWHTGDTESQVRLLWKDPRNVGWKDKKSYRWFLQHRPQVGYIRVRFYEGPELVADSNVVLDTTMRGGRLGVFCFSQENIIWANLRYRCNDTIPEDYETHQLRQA

One may read the Kd as the equilibrium constant for the complex coming apart. For keratan sulfate [KS], the Kd in experiment [1] (setting [7]) was over 11 µM. Moreover, the “binding to hCOMP (in words)” value in experiment [1] (in the presence of calcium, ACE) is “did not bind”.
On to Heparin, for which the Kd in experiment [1] (setting [7]) was 0.089 µM; in experiment [1] (setting [8]), 0.45 µM.
Consider heparan sulfate [HS], for which the dissociation constant (Kd) in experiment [1] (in the presence of calcium, ACE, read-out: binding to hCOMP (Kd)) stood at 1.2 µM.
dermatan sulfate [DS]: the Kd in experiment [1] (setting [7]) was found to be 0.328 µM.
As to human thrombospondin 1 [TSP1], the chondrocyte migration result in experiment [2] is “promotes chondrocyte migration”; in experiment [2] (listed as TSP 1) it was “promoted chondrocyte migration”. Further, the “calcium ions bound per subunit” value in experiment [3] was 10±2 calcium ions. Besides, in experiment [4], the “calcium ions bound per subunit, previous reports” value is 11-12 calcium ions.
With chondroitin-4-sulfate [C4S], the Kd in experiment [1] (setting [7]) came out at 0.583 µM.
In the case of chondroitin-6-sulfate [C6S], the Kd was 0.403 µM in experiment [1] (setting [7]) and over 11 µM in experiment [1] (setting [8]). Further, the “binding to hCOMP after EDTA treatment (in words)” value in experiment [1] (5 mM EDTA) is on record as “abolished”.
As for “cartilage oligomeric matrix protein [hCOMP]”, in experiment [5] (EDTA before coating), the “effect on attachment of treating with EDTA before coating” value is on record as “no obvious effect”. The “protein coating concentration at which cells also spread” value in experiment [5] (calcium replete conformation) was at least 5 µg/mL. In experiment [5] (dithiothreitol-treated), the “coating concentration at which cells attached and spread” value is 1 µg/mL. Moreover, the cell attachment result was “supported cell attachment in a dose-dependent manner” in experiment [5] (protein in calcium replete conformation, coated on wells) and “able to support attachment” in experiment [6] (calcium replete form, re-differentiated TC1a cells). In addition, the “effect of reduction after coating on adhesive activity” value in experiment [5] (reduced with DTT after coating, especially at low coating concentration) was “increased its adhesive activity”. The “chemoattractant potency compared with TSP1” value in experiment [2] and in experiment [2] (same concentration of 10 μg/ml) was “more potent chemoattractant than TSP1” in each case. In addition, the chondrocyte migration entry in experiment [2] is “good chemoattractant”. Moreover, the “calcium ions bound per subunit” value in experiment [3] worked out at 11±1 calcium ions. For the same substance, the “decrease of level of attachment by chelation of calcium before coating” value in experiment [6] (chelation of calcium before coating) is reported as “approximately 50%”.
